One assay has as its target Human recombinant PKCθ (Homo sapiens, UniProt Q04759). Description: Protein Kinase C θ Assay.
For assay [1], the system named is spleen cells from CBA and BALB/c mice. Briefly: Allogeneic Mixed Lymphocyte Reaction (MLR). The format is cell-based. Particulars: two-way MLR, CBA and BALB/c mouse spleen cells, four days incubation, read-out: IC50 MLR (3H-thymidine incorporation, proliferation). As for the experimental part:
The two-way MLR is performed according to standard procedures (J. Immunol. Methods, 1973, 2, 279 and Meo T. et al., Immunological Methods, New York, Academic Press, 1979, 227-39). Briefly, spleen cells from CBA and BALB/c mice (1.6×10^5 cells from each strain per well in flat bottom tissue culture microtiter plates, 3.2×10^5 in total) are incubated in RPMI medium containing 10% FCS, 100 U/ml penicillin, 100 μg/ml streptomycin (Gibco BRL, Basel, Switzerland), 50 μM 2-mercaptoethanol (Fluka, Buchs, Switzerland) and serially diluted compounds. Seven three-fold dilution steps in duplicates per test compound are performed. After four days of incubation 1 μCi ^3H-thymidine is added. Cells are harvested after an additional five-hour incubation period, and incorporated ^3H-thymidine is determined according to standard procedures. Background values (low control) of the MLR are […].
[…] proliferation of BALB/c cells alone. Low controls are subtracted from all values. High controls without any sample are taken as 100% proliferation. […]

The test system of assay [2] is Jurkat cells transfected with a human interleukin-2 promoter/reporter gene construct. Description: CD28 Costimulation Assay. Particulars: stimulated transfected Jurkat cells, 5.5 hours, stimulus not specified for these values, read-out: IC50 CD28 costimulation assay (luciferase reporter). It counts as cell-based. Here is the method: The assay is performed with Jurkat cells transfected with a human interleukin-2 promoter/reporter gene construct as described by Baumann G et al. in Transplant. Proc. 1992; 24:43-8, the β-galactosidase reporter gene being replaced by the luciferase gene (de Wet J., et al., Mol. Cell. Biol. 1987, 7(2), 725-737). Cells are stimulated by solid phase-coupled antibodies or phorbol myristate acetate (PMA) and the Ca^++ ionophore ionomycin as follows. For antibody-mediated stimulation Microlite TM1 microtiter plates (Dynatech) are coated with 3 μg/ml goat anti-mouse IgG Fc antibodies (Jackson) in 55 μl phosphate-buffered saline (PBS) per well for three hours at RT. Plates are blocked after removing the antibodies by incubation with 2% bovine serum albumin (BSA) in PBS (300 μl per well) for 2 hours at RT. […] After incubation for 5.5 hours at 37° C. in 5% CO2, the level of luciferase is determined by bioluminescence measurement. […] Luciferase activity is assessed with a bioluminescence reader (Labsystem, Helsinki, Finland) after automatic addition of 50 μl per well luciferase reaction buffer containing 20 mM Tricine, 1.07 mM (MgCO3)4Mg(OH)2×5H2O, 2.67 mM MgSO4, 0.1 mM EDTA, 33.3 mM DTT, 270 μM coenzyme A, 470 μM luciferin (Chemie Brunschwig AG), 530 μM ATP, pH 7.8. […] The inhibition obtained in the presence of a test compound is calculated as percent inhibition of the high control. […]

A further assay has as its target T1, Human recombinant PKCα (Homo sapiens, UniProt P17252).
T1 construct: purchased Oxford Biomedical Research
Description: Protein Kinase Cα Assay. To be noted: 10 μM 33P-ATP, 60 min room temperature. The format is biochemical.

The text below walks through data of patent publication US7851475B2, “Substituted pyrrole-2, 5-diones as protein kinase C inhibitors” (Novartis AG, priority 2004, dated 2010).

pIC50: −log10 of the molar value.

Sequence of Human recombinant PKCθ (Q04759 whole entry): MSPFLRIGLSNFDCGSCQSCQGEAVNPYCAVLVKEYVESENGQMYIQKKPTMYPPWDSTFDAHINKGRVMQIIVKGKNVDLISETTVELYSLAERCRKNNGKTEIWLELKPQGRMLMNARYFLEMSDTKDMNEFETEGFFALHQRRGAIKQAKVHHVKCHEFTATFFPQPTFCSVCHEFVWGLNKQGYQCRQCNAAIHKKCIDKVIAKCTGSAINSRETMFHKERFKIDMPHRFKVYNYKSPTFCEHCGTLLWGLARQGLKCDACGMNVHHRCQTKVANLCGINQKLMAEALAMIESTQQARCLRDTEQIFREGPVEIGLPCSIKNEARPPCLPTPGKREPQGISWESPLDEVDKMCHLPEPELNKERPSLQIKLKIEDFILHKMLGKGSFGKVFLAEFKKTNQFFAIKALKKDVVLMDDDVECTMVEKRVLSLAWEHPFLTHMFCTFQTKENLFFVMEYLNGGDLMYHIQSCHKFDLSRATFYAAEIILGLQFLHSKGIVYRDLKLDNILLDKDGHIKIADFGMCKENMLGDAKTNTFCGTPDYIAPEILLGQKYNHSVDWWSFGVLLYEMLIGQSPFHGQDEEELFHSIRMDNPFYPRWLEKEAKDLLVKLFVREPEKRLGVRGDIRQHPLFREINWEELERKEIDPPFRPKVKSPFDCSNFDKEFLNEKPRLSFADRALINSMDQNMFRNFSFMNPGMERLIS
Description for Human recombinant PKCθ: The compounds of the invention are tested for their activity on different PKC isoforms according to the following method. Assay is performed in a white with clear bottom 384-well microtiterplate with non-binding surface. The reaction mixture (25 μl) contains 1.5 μM of a tridecapeptide acceptor substrate that mimics the pseudo substrate sequence of PKC α with the Ala→Ser replacement, 10 μM ^33P-ATP, 10 mM Mg(NO3)2, 0.2 mM CaCl2, PKC at a protein concentration varying from 25 to 400 ng/ml (depending on the isotype used), lipid vesicles (containing 30 mol % phosphatidylserine, 5 mol % DAG and 65 mol % phosphatidylcholine) at a final lipid concentration of 0.5 mM, in 20 mM Tris-HCl buffer pH 7.4+0.1% BSA. Incubation is performed for 60 min at room temperature. Reaction is stopped by adding 50 μl of stop mix (100 mM EDTA, 200 μM ATP, 0.1% Triton X-100, 0.375 mg/well streptavidin-coated SPA beads in phosphate buffered saline w/o Ca, Mg). After 10 min incubation at room temperature, the suspension is spun down for 10 min at 300 g. Incorporated radioactivity is measured in a Trilux counter for 1 min. IC50 measurement is performed on a routine basis by incubating a serial dilution of inhibitor at concentrations ranging between 1-1000 μM. IC50 values are calculated from the graph by curve fitting with XL fit® software.

Consider `CN1CCN(c2ccc([N+](=O)[O-])c(C3=C(c4c[nH]c5ccccc45)C(=O)NC3=O)c2)CC1` [Example 1, 3-(1H-indol-3-yl)-4-[5-(4-methyl-piperazin-1-yl)-2-nitro-phenyl]-pyrrole-2,5-dione], for which the pIC50 was 8.05 on Human recombinant PKCθ, 7.76 in assay [1], 7.59 in assay [2] and 8.59 at Human recombinant PKCα.
In the case of `Cc1cccc2c(C3=C(c4cc(N5CCN(C)CC5)ccc4[N+](=O)[O-])C(=O)NC3=O)c[nH]c12` [Example 4], the pIC50 on Human recombinant PKCθ was 7.99; in assay [1], 7.62; in assay [2], 7.77; on Human recombinant PKCα it was 8.54.
